Source: ChEMBL document CHEMBL1275589, “Molecular epidemiology, sequence types, and plasmid analyses of KPC-producing Klebsiella pneumoniae strains in Israel” (2010)
Converted amounts (≈) assume the structure as drawn.

Columns and labels:
Klebsiella pneumoniae [1] = assay: Antimicrobial activity against carbapenem-resistant KPC-2 producing Klebsiella pneumoniae 475 ST 277 expressing beta-lactamase SHV-27, CTX-M-15 and OXA-4 by agar dilution method in presence of beta-lactamase inhibitor Tazobactam; format: functional
Klebsiella pneumoniae [2] = assay: Antimicrobial activity against carbapenem-resistant KPC-2 producing Klebsiella pneumoniae 475transformant by agar dilution method in presence of beta-lactamase inhibitor Tazobactam; format: functional
Klebsiella pneumoniae [3] = assay: Antimicrobial activity against carbapenem-resistant KPC-2 producing Klebsiella pneumoniae 469 ST 277 expressing beta-lactamase SHV-27, CTX-M-15 and OXA-4 by agar dilution method in presence of beta-lactamase inhibitor Tazobactam; format: functional
Klebsiella pneumoniae [4] = assay: Antimicrobial activity against carbapenem-resistant KPC-2 producing Klebsiella pneumoniae 469 transformant by agar dilution method in presence of beta-lactamase inhibitor Tazobactam; format: functional
Klebsiella pneumoniae [5] = assay: Antimicrobial activity against carbapenem-resistant KPC-2 producing Klebsiella pneumoniae 523 ST 340 expressing beta-lactamase TEM-1, SHV-11 and OXA-2 by agar dilution method in presence of beta-lactamase inhibitor Tazobactam; format: functional
Klebsiella pneumoniae [6] = assay: Antimicrobial activity against carbapenem-resistant KPC-2 producing Klebsiella pneumoniae 523transformant by agar dilution method in presence of beta-lactamase inhibitor Tazobactam; format: functional
Klebsiella pneumoniae [7] = assay: Antimicrobial activity against carbapenem-resistant KPC-2 producing Klebsiella pneumoniae 588 ST 340 expressing beta-lactamase TEM-1 and SHV-11 by agar dilution method in presence of beta-lactamase inhibitor Tazobactam; format: functional
Klebsiella pneumoniae [8] = assay: Antimicrobial activity against carbapenem-resistant KPC-2 producing Klebsiella pneumoniae 588 transformant by agar dilution method in presence of beta-lactamase inhibitor Tazobactam; format: functional
Klebsiella pneumoniae [9] = assay: Antimicrobial activity against carbapenem-resistant KPC-2 producing Klebsiella pneumoniae 365 transformant by agar dilution method in presence of beta-lactamase inhibitor Tazobactam; format: functional
Klebsiella pneumoniae [10] = assay: Antimicrobial activity against carbapenem-resistant KPC-2 producing Klebsiella pneumoniae 531 ST 376 expressing beta-lactamase SHV-1 by agar dilution method in presence of beta-lactamase inhibitor Tazobactam; format: functional
Klebsiella pneumoniae [11] = assay: Antimicrobial activity against carbapenem-resistant KPC-2 producing Klebsiella pneumoniae 531 transformant by agar dilution method in presence of beta-lactamase inhibitor Tazobactam; format: functional
Klebsiella pneumoniae [12] = assay: Antimicrobial activity against carbapenem-resistant KPC-2 producing Klebsiella pneumoniae 525 ST 376 expressing beta-lactamase SHV-1 by agar dilution method in presence of beta-lactamase inhibitor Tazobactam; format: functional
Klebsiella pneumoniae [13] = assay: Antimicrobial activity against carbapenem-resistant KPC-2 producing Klebsiella pneumoniae 525 transformant by agar dilution method in presence of beta-lactamase inhibitor Tazobactam; format: functional
Klebsiella pneumoniae [14] = assay: Antimicrobial activity against carbapenem-resistant KPC-2 producing Klebsiella pneumoniae 526 ST 376 expressing beta-lactamase SHV-1 by agar dilution method in presence of beta-lactamase inhibitor Tazobactam; format: functional
Klebsiella pneumoniae [15] = assay: Antimicrobial activity against carbapenem-resistant KPC-2 producing Klebsiella pneumoniae 526 transformant by agar dilution method in presence of beta-lactamase inhibitor Tazobactam; format: functional
Klebsiella pneumoniae [16] = assay: Antimicrobial activity against KPC-3 producing Klebsiella pneumoniae 549 ST 327 expressing beta-lactamase TEM-1 and CTX-M-2 by agar dilution method in presence of beta-lactamase inhibitor Tazobactam; format: functional
Klebsiella pneumoniae [17] = assay: Antimicrobial activity against KPC-3 producing Klebsiella pneumoniae 549 transformant by agar dilution method in presence of beta-lactamase inhibitor Tazobactam; format: functional
Klebsiella pneumoniae [18] = assay: Antimicrobial activity against KPC-3 producing Klebsiella pneumoniae 557 transformant by agar dilution method in presence of beta-lactamase inhibitor Tazobactam; format: functional
Escherichia coli [19] = assay: Antimicrobial activity against Escherichia coli Genehogs by agar dilution method in presence of beta-lactamase inhibitor Tazobactam; format: functional
Klebsiella pneumoniae [20] = assay: Antimicrobial activity against KPC-3 producing Klebsiella pneumoniae 557 ST 258 expressing beta-lactamase TEM-1 by agar dilution method in presence of beta-lactamase inhibitor Tazobactam
Klebsiella pneumoniae [21] = assay: Antimicrobial activity against carbapenem-resistant KPC-2 producing Klebsiella pneumoniae 365 ST 376 expressing beta-lactamase SHV-1, CTX-M-15 and OXA-4 by agar dilution method in presence of beta-lactamase inhibitor Tazobactam
Klebsiella pneumoniae [22] = assay: Antimicrobial activity against carbapenem-resistant KPC-2 producing Klebsiella pneumoniae 523 ST 340 expressing beta-lactamase TEM-1, SHV-11 and OXA-2 by Etest; format: functional
Klebsiella pneumoniae [23] = assay: Antimicrobial activity against carbapenem-resistant KPC-2 producing Klebsiella pneumoniae 523 transformant by Etest; format: functional
Klebsiella pneumoniae [24] = assay: Antimicrobial activity against carbapenem-resistant KPC-2 producing Klebsiella pneumoniae 588 ST 340 expressing beta-lactamase TEM-1 and SHV-11 by Etest; format: functional
Klebsiella pneumoniae [25] = assay: Antimicrobial activity against carbapenem-resistant KPC-2 producing Klebsiella pneumoniae 588 transformant by Etest; format: functional
Klebsiella pneumoniae [26] = assay: Antimicrobial activity against carbapenem-resistant KPC-2 producing Klebsiella pneumoniae 365 transformant by Etest; format: functional
Klebsiella pneumoniae [27] = assay: Antimicrobial activity against carbapenem-resistant KPC-2 producing Klebsiella pneumoniae 531 ST 376 expressing beta-lactamase SHV-1 by Etest; format: functional
Klebsiella pneumoniae [28] = assay: Antimicrobial activity against carbapenem-resistant KPC-2 producing Klebsiella pneumoniae 531 transformant by Etest; format: functional
Klebsiella pneumoniae [29] = assay: Antimicrobial activity against carbapenem-resistant KPC-2 producing Klebsiella pneumoniae 525 ST 376 expressing beta-lactamase SHV-1 by Etest; format: functional
Klebsiella pneumoniae [30] = assay: Antimicrobial activity against carbapenem-resistant KPC-2 producing Klebsiella pneumoniae 525 transformant by Etest; format: functional
Klebsiella pneumoniae [31] = assay: Antimicrobial activity against carbapenem-resistant KPC-2 producing Klebsiella pneumoniae 526 ST 376 expressing beta-lactamase SHV-1 by Etest; format: functional
Klebsiella pneumoniae [32] = assay: Antimicrobial activity against carbapenem-resistant KPC-2 producing Klebsiella pneumoniae 526 transformant by Etest; format: functional
Klebsiella pneumoniae [33] = assay: Antimicrobial activity against KPC-3 producing Klebsiella pneumoniae 549 ST 327 expressing beta-lactamase TEM-1 and CTX-M-2 by Etest; format: functional
Klebsiella pneumoniae [34] = assay: Antimicrobial activity against KPC-3 producing Klebsiella pneumoniae 549 transformant by Etest; format: functional
Klebsiella pneumoniae [35] = assay: Antimicrobial activity against KPC-3 producing Klebsiella pneumoniae 557 transformant by Etest; format: functional
Escherichia coli [36] = assay: Antimicrobial activity against Escherichia coli Genehogs by Etest; format: functional
Klebsiella pneumoniae [37] = assay: Antimicrobial activity against carbapenem-resistant KPC-2 producing Klebsiella pneumoniae 475 ST 277 expressing beta-lactamase SHV-27, CTX-M-15 and OXA-4 by Etest; format: functional
Klebsiella pneumoniae [38] = assay: Antimicrobial activity against carbapenem-resistant KPC-2 producing Klebsiella pneumoniae 475 transformant by Etest; format: functional
Klebsiella pneumoniae [39] = assay: Antimicrobial activity against carbapenem-resistant KPC-2 producing Klebsiella pneumoniae 469 ST 277 expressing beta-lactamase SHV-27, CTX-M-15 and OXA-4 by Etest; format: functional
Klebsiella pneumoniae [40] = assay: Antimicrobial activity against carbapenem-resistant KPC-2 producing Klebsiella pneumoniae 469 transformant by Etest; format: functional
Klebsiella pneumoniae [41] = assay: Antimicrobial activity against KPC-3 producing Klebsiella pneumoniae 557 ST 258 expressing beta-lactamase TEM-1 by Etest
Klebsiella pneumoniae [42] = assay: Antimicrobial activity against carbapenem-resistant KPC-2 producing Klebsiella pneumoniae 365 ST 376 expressing beta-lactamase SHV-1, CTX-M-15 and OXA-4 by Etest

## CCN1CCN(C(=O)N[C@@H](C(=O)N[C@@H]2C(=O)N3[C@@H]2SC(C)(C)[C@@H]3C(=O)O)c2ccccc2)C(=O)C1=O [PIPERACILLIN]
Klebsiella pneumoniae [1]
  MIC: > 128 µg/mL
Klebsiella pneumoniae [2]
  MIC: > 128 µg/mL
Klebsiella pneumoniae [3]
  MIC: > 128 µg/mL
Klebsiella pneumoniae [4]
  MIC: > 128 µg/mL
Klebsiella pneumoniae [5]
  MIC: 128 µg/mL
Klebsiella pneumoniae [6]
  MIC: > 128 µg/mL
Klebsiella pneumoniae [7]
  MIC: > 128 µg/mL
Klebsiella pneumoniae [8]
  MIC: > 128 µg/mL
Klebsiella pneumoniae [9]
  MIC: > 128 µg/mL
Klebsiella pneumoniae [10]
  MIC: > 128 µg/mL
Klebsiella pneumoniae [11]
  MIC: 64 µg/mL
Klebsiella pneumoniae [12]
  MIC: > 128 µg/mL
Klebsiella pneumoniae [13]
  MIC: 64 µg/mL
Klebsiella pneumoniae [14]
  MIC: > 128 µg/mL
Klebsiella pneumoniae [15]
  MIC: > 128 µg/mL
Klebsiella pneumoniae [16]
  MIC: > 320 µg/mL
Klebsiella pneumoniae [17]
  MIC: 64 µg/mL
Klebsiella pneumoniae [18]
  MIC: 64 µg/mL
Escherichia coli [19]
  MIC: < 4 µg/mL
Klebsiella pneumoniae [20]
  MIC: > 320 µg/mL
Klebsiella pneumoniae [21]
  MIC: > 128 µg/mL

## CN(C)c1cc(NC(=O)CNC(C)(C)C)c(O)c2c1C[C@H]1C[C@H]3[C@H](N(C)C)C(O)=C(C(N)=O)C(=O)[C@@]3(O)C(O)=C1C2=O [TIGECYCLINE]
Klebsiella pneumoniae [22]
  MIC: 0.5 µg/mL (≈ 0.854 µM)
Klebsiella pneumoniae [23]
  MIC: 0.125 µg/mL (≈ 0.213 µM)
Klebsiella pneumoniae [24]
  MIC: 2 µg/mL (≈ 3.41 µM)
Klebsiella pneumoniae [25]
  MIC: 0.125 µg/mL (≈ 0.213 µM)
Klebsiella pneumoniae [26]
  MIC: 0.125 µg/mL (≈ 0.213 µM)
Klebsiella pneumoniae [27]
  MIC: 1.5 µg/mL (≈ 2.56 µM)
Klebsiella pneumoniae [28]
  MIC: 0.125 µg/mL (≈ 0.213 µM)
Klebsiella pneumoniae [29]
  MIC: 1 µg/mL (≈ 1.71 µM)
Klebsiella pneumoniae [30]
  MIC: 0.125 µg/mL (≈ 0.213 µM)
Klebsiella pneumoniae [31]
  MIC: 1.5 µg/mL (≈ 2.56 µM)
Klebsiella pneumoniae [32]
  MIC: 0.125 µg/mL (≈ 0.213 µM)
Klebsiella pneumoniae [33]
  MIC: 0.75 µg/mL (≈ 1.28 µM)
Klebsiella pneumoniae [34]
  MIC: 0.19 µg/mL (≈ 0.324 µM)
Klebsiella pneumoniae [35]
  MIC: 0.125 µg/mL (≈ 0.213 µM)
Escherichia coli [36]
  MIC: 0.094 µg/mL (≈ 0.161 µM)
Klebsiella pneumoniae [37]
  MIC: 4 µg/mL (≈ 6.83 µM)
Klebsiella pneumoniae [38]
  MIC: 0.125 µg/mL (≈ 0.213 µM)
Klebsiella pneumoniae [39]
  MIC: 1 µg/mL (≈ 1.71 µM)
Klebsiella pneumoniae [40]
  MIC: 0.125 µg/mL (≈ 0.213 µM)
Klebsiella pneumoniae [41]
  MIC: 4 µg/mL (≈ 6.83 µM)
Klebsiella pneumoniae [42]
  MIC: 1 µg/mL (≈ 1.71 µM)
